Measurements reported in article PMC10819485 (2024).

What was measured:
[1] = test system: HEV1 (electrode form) (DNA, aptamer) AGCAGCTTATTGCTGAATTTTT; assay: differential pulse voltammetry aptasensor; details: peak current falls with log E2, from 5 pg/mL; immobilised aptamer
[2] = test system: HEV1 (colorimetric form) (DNA, aptamer) AGCAGCTTATTGCTGAATTTTT; assay: AuNP aggregation colorimetry; details: NaCl; A660/A520 ratio rises with E2, 0.2 to 1 μg/mL; room temperature
[3] = test system: HEV2 (MST form) (DNA, aptamer) AGCAGATGAATCTGAATTTTT; assay: microscale thermophoresis; details: NaCl 300 mM, MgCl2 5 mM (aptamer buffer); 20 mM Tris pH 7.6, 0.01% Tween 20; highest E2 1000 nM
[4] = test system: M70 (colorimetric form) (DNA, aptamer) GCTTCCAGCTTATTGAATTACACGCAGAGGGTAGCGGCTCTGCGCATTCAATTGCTGCGCGCTGAAGCGCGGAAGC; assay: AuNP aggregation colorimetry; details: NaCl; A660/A520 ratio rises with E2; room temperature
[5] = test system: HEV1 (MST form) (DNA, aptamer) AGCAGCTTATTGCTGAATTTTT; assay: microscale thermophoresis; details: NaCl 300 mM, MgCl2 5 mM (aptamer buffer); 20 mM Tris pH 7.6, 0.01% Tween 20; E2 up to 1000 nM; 30 min incubation; abstract 92 nM
[6] = test system: M70 (electrode form) (DNA, aptamer) GCTTCCAGCTTATTGAATTACACGCAGAGGGTAGCGGCTCTGCGCATTCAATTGCTGCGCGCTGAAGCGCGGAAGC; assay: differential pulse voltammetry aptasensor; details: peak current falls with log E2, 5 pg/mL to 20 ng/mL; immobilised aptamer

C[C@]12CC[C@@H]3c4ccc(O)cc4CC[C@H]3[C@@H]1CC[C@@H]2O
binding [1]: yes
binding [2]: yes
binding [3]: no
binding [4]: yes
KD [5]: 92.76 ± 66.02 nM
binding [6]: yes
